Measured values: patent US20170190705A1, “Compositions and Methods for Inhibiting BMP” (THE BRIGHAM AND WOMAN'S HOSPITAL, INC., priority 2014, published 2017)
Like-named read-outs stand apart in the source and are kept apart here.

Tests used:
RIPK2 = RIPK2 (Homo sapiens, UniProt O43353); assay: Kinome profiling RIPK2; type: biochemical; conditions: Table 4, read-out: Inhibitory Activity RIPK2
Protocol: (§1) . The kinome-wide selectivity was determined following the methods previously reported by Mohedas et al., ACS Chem Biol 2013, 8, 1291-1302 and Sanvitale et al., PLoS One 2013, 8, e62721.

MAP4K5 = MAP4K5 (Homo sapiens, UniProt Q9Y4K4); assay: Kinome profiling MAP4K5; type: biochemical; conditions: Table 4, read-out: Inhibitory Activity MAP4K5
MAP4K5, sequence (Q9Y4K4 whole entry): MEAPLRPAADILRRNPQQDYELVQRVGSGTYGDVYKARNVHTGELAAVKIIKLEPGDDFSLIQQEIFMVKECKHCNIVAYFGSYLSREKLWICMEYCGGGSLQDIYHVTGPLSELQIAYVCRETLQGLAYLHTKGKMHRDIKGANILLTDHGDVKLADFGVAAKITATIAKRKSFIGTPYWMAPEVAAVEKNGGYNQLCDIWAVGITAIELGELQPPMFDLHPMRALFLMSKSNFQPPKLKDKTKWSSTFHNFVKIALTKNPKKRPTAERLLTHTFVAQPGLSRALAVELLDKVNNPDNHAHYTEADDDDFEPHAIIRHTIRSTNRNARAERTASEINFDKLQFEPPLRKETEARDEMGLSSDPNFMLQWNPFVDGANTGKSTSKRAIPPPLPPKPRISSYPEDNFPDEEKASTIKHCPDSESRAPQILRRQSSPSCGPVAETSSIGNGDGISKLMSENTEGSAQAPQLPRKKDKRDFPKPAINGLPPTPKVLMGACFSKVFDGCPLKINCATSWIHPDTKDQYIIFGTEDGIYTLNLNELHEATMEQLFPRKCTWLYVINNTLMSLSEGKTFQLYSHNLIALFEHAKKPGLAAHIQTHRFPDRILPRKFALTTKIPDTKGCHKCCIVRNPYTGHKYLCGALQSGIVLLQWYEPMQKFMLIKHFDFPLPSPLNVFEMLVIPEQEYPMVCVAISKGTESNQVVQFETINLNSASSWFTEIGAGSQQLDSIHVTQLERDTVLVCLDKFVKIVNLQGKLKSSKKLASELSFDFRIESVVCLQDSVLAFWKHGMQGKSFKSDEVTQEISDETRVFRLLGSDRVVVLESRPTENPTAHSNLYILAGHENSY
Protocol: as §1

BMP6 = assay: Ligand induced transcriptional activity assay BMP6 (BRE-Luc); type: cell-based
ALK6 = ALK6 (Homo sapiens, UniProt O00238); assay: Kinome profiling ALK6; type: biochemical; conditions: Table 4, read-out: Inhibitory Activity ALK6
ALK6, sequence (O00238 14-502): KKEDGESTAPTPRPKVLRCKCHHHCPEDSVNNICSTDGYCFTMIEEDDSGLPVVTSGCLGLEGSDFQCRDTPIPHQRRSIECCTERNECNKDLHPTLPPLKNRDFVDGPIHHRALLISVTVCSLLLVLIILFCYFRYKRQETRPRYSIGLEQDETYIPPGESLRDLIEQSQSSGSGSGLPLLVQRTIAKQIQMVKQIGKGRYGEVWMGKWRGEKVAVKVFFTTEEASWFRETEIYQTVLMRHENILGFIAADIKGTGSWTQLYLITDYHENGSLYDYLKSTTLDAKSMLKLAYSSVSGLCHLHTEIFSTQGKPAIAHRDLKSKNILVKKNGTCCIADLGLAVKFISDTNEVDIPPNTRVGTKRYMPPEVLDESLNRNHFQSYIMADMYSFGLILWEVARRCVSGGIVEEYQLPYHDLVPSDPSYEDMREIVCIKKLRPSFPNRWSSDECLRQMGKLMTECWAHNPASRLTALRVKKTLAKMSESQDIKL
Protocol: as §1

TNIK = TNIK (Homo sapiens, UniProt Q9UKE5); assay: Kinome profiling TNIK; type: biochemical; conditions: Table 4, read-out: Inhibitory Activity TNIK
TNIK, sequence (Q9UKE5 whole entry): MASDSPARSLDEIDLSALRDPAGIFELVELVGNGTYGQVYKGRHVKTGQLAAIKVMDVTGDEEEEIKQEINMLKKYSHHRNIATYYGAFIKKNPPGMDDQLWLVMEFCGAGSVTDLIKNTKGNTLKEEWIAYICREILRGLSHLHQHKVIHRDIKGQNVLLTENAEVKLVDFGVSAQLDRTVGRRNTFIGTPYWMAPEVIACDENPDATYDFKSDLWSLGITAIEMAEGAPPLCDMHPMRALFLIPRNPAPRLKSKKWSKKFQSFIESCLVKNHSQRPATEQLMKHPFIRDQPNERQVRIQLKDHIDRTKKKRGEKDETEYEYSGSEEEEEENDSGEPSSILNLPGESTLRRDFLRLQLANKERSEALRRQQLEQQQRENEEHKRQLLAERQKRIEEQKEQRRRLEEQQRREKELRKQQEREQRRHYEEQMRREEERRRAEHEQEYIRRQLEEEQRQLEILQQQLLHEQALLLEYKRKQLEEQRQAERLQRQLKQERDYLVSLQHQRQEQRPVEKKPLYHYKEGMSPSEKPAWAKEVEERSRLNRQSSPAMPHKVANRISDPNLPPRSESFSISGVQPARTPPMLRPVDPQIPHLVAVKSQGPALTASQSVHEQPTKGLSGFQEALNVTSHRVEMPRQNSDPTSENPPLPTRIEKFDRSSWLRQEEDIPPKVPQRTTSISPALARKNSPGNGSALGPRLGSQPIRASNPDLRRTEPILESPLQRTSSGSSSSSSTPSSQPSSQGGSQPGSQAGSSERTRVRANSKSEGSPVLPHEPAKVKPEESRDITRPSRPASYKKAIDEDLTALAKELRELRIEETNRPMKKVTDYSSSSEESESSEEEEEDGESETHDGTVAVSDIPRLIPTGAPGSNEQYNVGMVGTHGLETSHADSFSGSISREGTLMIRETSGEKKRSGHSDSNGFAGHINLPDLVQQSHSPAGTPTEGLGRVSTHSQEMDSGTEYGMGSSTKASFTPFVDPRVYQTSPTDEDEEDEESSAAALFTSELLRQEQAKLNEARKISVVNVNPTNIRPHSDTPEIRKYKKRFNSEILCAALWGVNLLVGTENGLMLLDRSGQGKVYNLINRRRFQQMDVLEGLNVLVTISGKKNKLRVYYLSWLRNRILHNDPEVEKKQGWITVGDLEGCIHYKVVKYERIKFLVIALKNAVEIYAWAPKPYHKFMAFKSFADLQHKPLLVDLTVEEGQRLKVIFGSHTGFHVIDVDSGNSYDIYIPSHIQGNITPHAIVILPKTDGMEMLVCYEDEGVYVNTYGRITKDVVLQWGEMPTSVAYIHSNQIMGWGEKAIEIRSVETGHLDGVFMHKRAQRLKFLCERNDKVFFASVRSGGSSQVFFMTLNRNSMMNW
Protocol: as §1

caALK1 = target: T1, caALK1 (Homo sapiens, UniProt P37023, Q201D); assay: Luciferase reporter assay constitutively active ALK1; conditions: read-out: Cell Based Assay caALK1 IC50
T1 construct: expressed in transfected cells; host or cells: C2C12 BRE-Luc cells infected with adenovirus (MOI 100)
T1 sequence (P37023 22-503 Q201D): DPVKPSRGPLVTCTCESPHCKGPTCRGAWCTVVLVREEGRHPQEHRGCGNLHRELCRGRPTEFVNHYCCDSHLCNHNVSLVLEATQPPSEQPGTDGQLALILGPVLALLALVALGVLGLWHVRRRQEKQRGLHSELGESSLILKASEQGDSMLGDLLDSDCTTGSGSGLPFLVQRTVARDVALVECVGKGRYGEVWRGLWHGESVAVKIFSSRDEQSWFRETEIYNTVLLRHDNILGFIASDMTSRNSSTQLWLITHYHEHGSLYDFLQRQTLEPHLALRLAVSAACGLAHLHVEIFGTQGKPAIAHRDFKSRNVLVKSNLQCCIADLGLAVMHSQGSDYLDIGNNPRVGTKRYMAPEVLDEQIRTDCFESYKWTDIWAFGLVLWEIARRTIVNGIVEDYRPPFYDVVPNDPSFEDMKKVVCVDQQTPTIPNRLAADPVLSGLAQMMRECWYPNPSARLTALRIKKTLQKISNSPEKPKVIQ
Protocol: The cells were incubated for 1 h (37° C. and 10% CO2) and allowed to settle and attach. Compounds of interest or DMSO were diluted in DMEM and added at final compound concentrations of 1 nM to 10 μM. Cells were then incubated for 30 min. Adenovirus expressing constitutively active BMP and TGF-β type I receptors (Ad.caALK1-5), generously provided by Dr. Akiko Hata (University of to California at San Francisco), were added to achieve a multiplicity of infection (MOI) of 100. Plates were incubated overnight at 37° C. Cell viability was assayed with an MIT (3-(4,5-dimethylthiazol-2-yl)-2,5-diphenyl tetrazolium bromide) colorimetric assay (Promega) per the manufacturer's instructions. Media was discarded, and firefly luciferase activity was measured (Promega) according to manufacturer's protocol. Light output was measured using a Spectramax L luminometer (Molecular Devices) with an integration time of one second per well. Data was normalized to 100% of incremental BRE-Luc activity due to adenoviruses specifying caALK1, 2, or 3, or the incremental CAGA-Luc activity due to adenoviruses specifying caALK4 or 5.

RIPK2, sequence (O43353 whole entry): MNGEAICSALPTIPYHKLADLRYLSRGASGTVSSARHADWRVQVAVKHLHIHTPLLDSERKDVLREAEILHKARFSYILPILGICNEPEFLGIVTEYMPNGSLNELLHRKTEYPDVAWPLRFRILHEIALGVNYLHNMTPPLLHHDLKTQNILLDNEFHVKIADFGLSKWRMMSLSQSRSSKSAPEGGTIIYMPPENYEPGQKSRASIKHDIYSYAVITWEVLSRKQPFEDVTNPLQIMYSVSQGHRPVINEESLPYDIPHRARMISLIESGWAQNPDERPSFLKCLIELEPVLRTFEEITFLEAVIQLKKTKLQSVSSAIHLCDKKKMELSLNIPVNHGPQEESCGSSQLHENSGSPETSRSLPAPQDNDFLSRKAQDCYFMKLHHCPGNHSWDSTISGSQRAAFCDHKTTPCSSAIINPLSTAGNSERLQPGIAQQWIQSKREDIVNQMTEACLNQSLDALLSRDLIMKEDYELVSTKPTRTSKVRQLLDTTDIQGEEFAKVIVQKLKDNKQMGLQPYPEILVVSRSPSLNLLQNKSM

## COc1cc(-c2cc(-c3ccc(N4CCNCC4)cc3)cnc2C)cc(OC)c1OC [Compound 10, 1-(4-(6-methyl-5-(3,4,5-trimethoxyphenyl)pyridin-3-yl)phenyl)piperazine]
RIPK2; 100 nM
  inhibition at 0.1 µM: 71%
RIPK2; 1 μM
  inhibition at 1 µM: 97%
MAP4K5; 100 nM
  inhibition at 0.1 µM: 43%
MAP4K5; 1 μM
  inhibition at 1 µM: 86%
BMP6; Table 7, read-out: Ligand Induced BMP6 IC50
  IC50: 67 nM
BMP6; cell-based signaling inhibition, read-out: BMP6 IC50
  IC50: 100 ± 1 nM
ALK6; 100 nM
  inhibition at 0.1 µM: 11%
ALK6; 1 μM
  inhibition at 1 µM: 60%
TNIK; 100 nM
  inhibition at 0.1 µM: 71%
TNIK; 1 μM
  inhibition at 1 µM: 98%

## COc1cc(-c2cc(-c3ccc(N4CCNCC4)cc3)cnc2N)cc(OC)c1OC [Compound 15, 5-(4-(piperazin-1-yl)phenyl)-3-(3,4,5-trimethoxyphenyl)pyridin-2-amine]
caALK1
  IC50: 24 nM
